Publication PMC7708037, “Targeting OGG1 arrests cancer cell proliferation by inducing replication stress” (Nucleic Acids Research, 2020)
Where two headings read alike, the source gives them in different places.

Experiments:
Test in all cases: Resazurin viability, 5 days
CCRF-CEM = format: cell-based, human; conditions: C, T-cell acute lymphoblastic leukemia
Protocol: (§1) Cells were seeded in 96- or 384-well plates and incubated for 3 days for combination experiments or 5 days for single-drug exposure experiments. Resazurin (R7017, SigmaAldrich) was added to a final concentration of 0.01 mg/ml resazurin and fluorescence was measured at ex530/em590 after incubation for 2, 4 or 6 h. Curves were fitted using XLfit software (IDBS) or Prism 8.0 (Graphpad Software), and EC50 values were determined.
(§2) Supplementary Table S1: Effect of OGG1 inhibitors on cancer and non-transformed cell lines.
(§3) Cell lines were incubated with a dilution series of the indicated compounds for 5 days, and viability
(§4) assessed with resazurin. EC50-values were calculated based on the resulting dose -response curves.
(§5) The number of independent experiments is indicated for each value.
(§6) C=cancer;N=non- Disease EC50 n= EC50 n= EC50 n=
(§7) transformed (µM) (µM) (µM)
A3 C T-cell acute lymphoblastic leukemia 10.0 12 7.9 7 9.8 5 […]
CCRF-CEM C T-cell acute lymphoblastic leukemia 13.0 5 10.5 2 7.9 2 […]

A3 = format: cell-based, human; conditions: A3, C, T-cell acute lymphoblastic leukemia
Protocol: as §1, §2, §3, §4, §5, §6, §7

MEF Ogg1(-/-) = format: cell-based; conditions: N, Non-transformed mouse embryonic fibroblast
Protocol: as §1, §2, §3, §4, §5, §6
(§8) transformed (µM) (µM) (µM) […]

T98G = format: cell-based, human; conditions: C, Glioblastoma
Protocol: as §1, §2, §3, §4, §5, §6

U2OS = format: cell-based, human; conditions: C, Osteosarcoma
Protocol: as §1, §2, §3, §4, §5, §6

HCT116 = format: cell-based, human; conditions: HCT116, C, Colorectal carcinoma
Protocol: as §1, §2, §3, §4, §5, §6

CCD841 = format: cell-based, human; conditions: CCD841, N, Non-transformed fibroblast
Protocol: as §1, §2, §3, §4, §5, §6

A498 = format: cell-based, human; conditions: A498, C, Kidney carcinoma
Protocol: as §1, §2, §3, §4, §5, §6

786-0 = format: cell-based, human; conditions: 786-0, C, Kidney adenocarcinoma
Protocol: as §1, §2, §3, §4, §5, §6

Raji = format: cell-based, human; conditions: C, Burkitt's lymphoma
Protocol: as §1, §2, §3, §4, §5, §6

VH10 = format: cell-based, human; conditions: VH10, N, Non-transformed fibroblast
Protocol: as §1, §2, §3, §4, §5, §6

HCT116+Chr3 = format: cell-based, human; conditions: HCT116+Chr3, C, Colorectal carcinoma with WT Chr3
Protocol: as §1, §2, §3, §4, §5, §6

MOLT4 = format: cell-based, human; conditions: MOLT4, C, T-cell acute lymphoblastic leukemia
Protocol: as §1, §2, §3, §4, §5, §6

DU145 = format: cell-based, human; conditions: DU145, C, Prostate carcinoma
Protocol: as §1, §2, §3, §4, §5, §6

UO31 = format: cell-based, human; conditions: UO31, C, Kidney carcinoma
Protocol: as §1, §2, §3, §4, §5, §6

H460 = format: cell-based, human; conditions: H460, C, Large cell lung carcinoma
Protocol: as §1, §2, §3, §4, §5, §6

Rec1 = format: cell-based, human; conditions: Rec1, C, B cell non-Hodgkin's lymphoma
Protocol: as §1, §2, §3, §4, §5, §6

SaOS2 = format: cell-based, human; conditions: SaOS2, C, Osteosarcoma
Protocol: as §1, §2, §3, §4, §5, §6

M059K = format: cell-based, human; conditions: C, Glioblastoma
Protocol: as §1, §2, §3, §4, §5, §6

KG1a = format: cell-based, human; conditions: C, Acute myelogenous leukemia
Protocol: as §1, §2, §3, §4, §5, §6

M059J = format: cell-based, human; conditions: C, Glioblastoma
Protocol: as §1, §2, §3, §4, §5, §6

SW480 = format: cell-based, human; conditions: SW480, C, Colorectal adenocarcinoma
Protocol: as §1, §2, §3, §4, §5, §6

BJ-Tert = format: cell-based, human
Protocol: as §1, §2, §3, §4, §5, §6

HT-29 = format: cell-based, human; conditions: HT-29, C, Colorectal adenocarcinoma
Protocol: as §1, §2, §3, §4, §5, §6

PL-21 = format: cell-based, human; conditions: PL-21, C, Acute myeloid leukemia
Protocol: as §1, §2, §3, §4, §5, §6

PC3 = format: cell-based, human; conditions: PC3, C, Prostate adenocarcinoma
Protocol: as §1, §2, §3, §4, §5, §6

HL-60 = format: cell-based, human; conditions: HL-60, C, Acute promyelocytic leukemia
Protocol: as §1, §2, §3, §4, §5, §6

HeLa = format: cell-based, human; conditions: C, Cervix adenomcarcinoma
Protocol: as §1, §2, §3, §4, §5, §6

MRC5 = format: cell-based, human; conditions: MRC5, N, Non-transformed lung fibroblast
Protocol: as §1, §2, §3, §4, §5, §6

MV4-11 = format: cell-based, human; conditions: MV4-11, C, Acute monocytic leukemia
Protocol: as §1, §2, §3, §4, §5, §6

Daudi = format: cell-based, human; conditions: C, Burkitt's lymphoma
Protocol: as §1, §2, §3, §4, §5, §6

Jurkat = format: cell-based, human; conditions: C, T-cell acute lymphoblastic leukemia
Protocol: as §1, §2, §3, §4, §5, §6, §8

BJ-Ras = format: cell-based, human; conditions: C, RAS-transformed fibroblast
Protocol: as §1, §2, §3, §4, §5, §6, §8

LCL#2 = format: cell-based, human; conditions: LCL#2, N, Non-transformed lymphoblastoid cell line
Protocol: as §1, §2, §3, §4, §5, §6, §8

Reh = format: cell-based, human; conditions: C, Acute lymphocytic leukemia (non-T, non-B)
Protocol: as §1, §2, §3, §4, §5, §6, §8

LCL#1 = format: cell-based, human; conditions: LCL#1, N, Non-transformed lymphoblastoid cell line
Protocol: as §1, §2, §3, §4, §5, §6, §8

ACHN = format: cell-based, human; conditions: C, Kidney adenocarcinoma
Protocol: as §1, §2, §3, §4, §5, §6, §8

RFX393 = format: cell-based, human; conditions: RFX393, C, Kidney carcinoma
Protocol: as §1, §2, §3, §4, §5, §6, §8

`O=C(Nc1ccc(I)cc1)N1CCC(n2c(=O)[nH]c3c(Br)cccc32)CC1` [TH5487] showed an EC50 (CCRF-CEM) of 13 µM, an EC50 (A3) of 10 µM and an EC50 (MEF Ogg1(-/-)) of 47.7 µM. For the same compound, the EC50 (T98G) was 14.5 µM, the EC50 (U2OS) was 19.5 µM and the EC50 (HCT116) was 17.5 µM. The EC50 (CCD841) was 43.3 µM, the EC50 (A498) was 28.5 µM and the EC50 (786-0) was 29.7 µM. For the same compound, the EC50 (Raji) was 19 µM, the EC50 (VH10) was 32.4 µM and the EC50 (HCT116+Chr3) was 20.6 µM. For the same compound, the EC50 (MOLT4) was 13.2 µM, the EC50 (DU145) was 13.2 µM and the EC50 (UO31) was 2.9 µM. For the same compound, the EC50 (H460) was 10.1 µM, the EC50 (Rec1) was 13.7 µM and the EC50 (SaOS2) was 21.4 µM. For the same compound, the EC50 (M059K) was 20.3 µM, the EC50 (KG1a) was 14.3 µM and the EC50 (M059J) was 26.1 µM. It also gave an EC50 (SW480) of 33.3 µM, an EC50 (BJ-Tert; BJ-Tert, N, Tert-Immortalized fibroblast, 5 days, resazurin, read-out: EC50) of 33.7 µM and an EC50 (BJ-Tert; hTERT-immortalized BJ fibroblasts, five days, Figure 3C, read-out: EC50 (viability)) of 29.5 ± 4.7 µM. The EC50 (HT-29) was 24.5 µM, the EC50 (PL-21) was 20.6 µM and the EC50 (PC3) was 32.6 µM. For the same compound, the EC50 (HL-60) was 15.9 µM, the EC50 (HeLa) was 19.3 µM and the EC50 (MRC5) was 42.4 µM. It also gave an EC50 (MV4-11) of 7.8 µM, an EC50 (Daudi) of 16.6 µM and an EC50 (Jurkat) of 10.5 µM. The EC50 (BJ-Ras) was 4.8 µM, the EC50 (LCL#2) was 27.7 µM and the EC50 (Reh) was 18.3 µM. For the same compound, the EC50 (LCL#1) was 31.1 µM, the EC50 (ACHN) was 2.3 µM and the EC50 (RFX393) was 19.6 µM.
